# Reference: PubChem BioAssay AID1645868 (Buhrlage Lab, Dana-Farber Cancer Institute and Novartis …, 2021)
# Active and inactive are the calls of the source.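 How the source made its calls: active means maximal percent inhibition of the deubiquitinase OTUD3 of at least 30% across the tested doses; inactive means the rest.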
# Molecular target: OTU domain-containing protein 3 (Homo sapiens) (UniProt Q5T2D3)
# Assay: Validation of screening hits, potency titration, in vitro enzymatic, OTU domain-containing protein 3 DUB inhibitors (AID 1645868)
# Conditions: purified OTUD3, ubiquitin-rhodamine cleavage fluorescence, 2 h
# OTU domain-containing protein 3 (Homo sapiens), sequence (Q5T2D3 whole entry, looked up, the tested form may be a part): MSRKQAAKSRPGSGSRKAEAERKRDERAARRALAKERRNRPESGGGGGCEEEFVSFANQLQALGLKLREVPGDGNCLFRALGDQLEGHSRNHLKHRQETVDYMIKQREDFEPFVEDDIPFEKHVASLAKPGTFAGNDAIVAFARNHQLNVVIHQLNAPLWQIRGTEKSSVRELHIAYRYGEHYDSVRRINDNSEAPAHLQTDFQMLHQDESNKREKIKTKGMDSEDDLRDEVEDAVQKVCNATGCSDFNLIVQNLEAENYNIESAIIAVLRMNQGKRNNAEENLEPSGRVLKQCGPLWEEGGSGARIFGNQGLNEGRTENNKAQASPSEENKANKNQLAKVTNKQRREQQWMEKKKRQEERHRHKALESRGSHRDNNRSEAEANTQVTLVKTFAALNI
row,Structure (SMILES),IC50
1,Cc1nc(CN2CCn3c(Cn4cccn4)cnc3C2C)cs1 (centres undefined),> 50 µM (inactive)
2,CCc1cc2c(=O)[nH]c(Cc3ccc(OC)cc3)nc2s1,33.4 µM
3,O=C1Oc2nc3ccccc3cc2CN1Cc1ccco1,34.4 µM
4,COc1cccc(OCCCn2c(C(C)NC(=O)c3ccco3)nc3ccccc32)c1 (centres undefined),32.8 µM
5,CCOc1ccc(CCNC(=O)c2cccc3c2C(=O)N(CCOC)C3)cc1OCC,> 50 µM (inactive)
6,Cc1c(C(=O)c2ccccc2)c2ccccn2c1CCc1ccccn1,> 50 µM (inactive)
7,Cc1ccccc1NC(=O)Cn1cc(-c2nc(C3CC3)no2)ccc1=O,> 50 µM (inactive)
8,CCN(Cc1ccccc1)S(=O)(=O)c1ccc(C(=O)Nc2ccc3c(c2)OCCO3)cc1,> 50 µM (inactive)
9,COCCNC(=O)c1ccn(-c2ccc3ccc(-c4ccncc4)cn23)n1,> 50 µM (inactive)
10,O=C(CC1C(=O)N(Cc2cccnc2)c2nc3ccccc3n21)Nc1cccc2ccccc12 (centres undefined),> 50 µM (inactive)
11,O=C(Nc1cccc2ccccc12)N1CCC(c2nc3c(nnn3Cc3ccc(F)cc3)c(=O)[nH]2)CC1,> 50 µM (inactive)
12,Cc1ccc(CN2C(=O)c3cc4ccccc4n3CC2(C)C(=O)NCc2ccccc2)o1 (centres undefined),> 50 µM (inactive)
13,Cc1c(C)c2ccc(OCC(=O)NCc3ccncc3)c(C)c2oc1=O,> 50 µM (inactive)
14,O=C(CCCCn1c(=O)c2ccccc2n(CC(=O)Nc2ccc(F)c(Cl)c2)c1=O)NCc1ccco1,> 50 µM (inactive)
15,COc1cccc(NC(=O)C2C3C=CC4(O3)C2C(=O)N(CCc2ccccc2Cl)C4C(=O)NC2CCCCC2)c1 (centres undefined),29.7 µM
16,COc1ccc(OC)c2c(C)cc(N3CCN(S(=O)(=O)c4ccc5c(c4)CCCN5S(C)(=O)=O)CC3)nc12,21.1 µM
17,CO/C=C/C(=O)c1cc2cnc3c(=N)cc(NC(C)=O)c([nH]1)c23,> 50 µM (inactive)
18,CCOc1ccccc1NC(=O)Cn1c(=O)n(CCCC(=O)NCc2ccc(C)cc2)c(=O)c2sccc21,2.78 µM
19,COc1cc2c(oc(=O)c3cc(C)cc(OC)c32)c2c([C@@H]3OC(C)[C@@H](O)[C@@](C)(O)C3O)ccc(O)c12 (some centres undefined),> 50 µM (inactive)
20,COc1ccc(-c2nc(Cn3nnc(C(=O)Nc4ccc(C)cc4C)c3N)c(C)o2)cc1,> 50 µM (inactive)
21,O=C(Nc1ccc(NS(=O)(=O)c2ccc3c4c(cccc24)CC3)cc1)c1ccccc1,> 50 µM (inactive)
22,CCCCN(C)C(=O)c1cc2c(=O)n3cccc(C)c3nc2n1Cc1ccccc1,> 50 µM (inactive)
23,O=C(Cn1cnc(-c2noc(-c3ccncc3)n2)c1)N1CCN(c2ccccc2F)CC1,> 50 µM (inactive)
24,CCOc1cc(N2CCOCC2)c(OCC)cc1NC(=O)c1cc(-c2ccncc2)nc2ccccc12,> 50 µM (inactive)

row,Structure (SMILES),IC50
1,COc1cc(NC(=O)c2cc(-c3ccncc3)n(-c3ccc(F)cc3)n2)cc(OC)c1,> 50 µM (inactive)
2,COc1ccc(OC)c(-n2c(SCC(=O)N3CCc4ccccc43)nnc2-c2cccc(S(=O)(=O)N(C)C)c2)c1,> 50 µM (inactive)
3,Nc1c(-c2ccc(Cl)cc2)cnc2cc(-c3ccc(Cl)c(Cl)c3)nn12,16.1 µM
4,COC1C(O)=C2C(=O)O/C(C)=C/C=C/C=C/C=C/CC(c3ccccc3)NC(=O)/C=C/C=C/C=C\C=C\C2(C)C1O (centres undefined),> 50 µM (inactive)
5,CCOc1ccc(NC(=O)Cn2c(=O)n(CCC(=O)NCc3ccccc3OC)c(=O)c3ccccc32)cc1,15.4 µM
6,Cc1ccc(NC(=O)CSc2nc3c(cc2C#N)C(=O)CCC3)cc1,30.2 µM
7,CC(C)c1nc2sc3c(N(CCO)CCO)ncnc3c2c2c1COC(C)(C)C2,> 50 µM (inactive)
8,O=c1c(NCCCN2CCCC2)nc2ccncc2n1Cc1ccccc1,> 50 µM (inactive)
9,C[C@@H](C(=O)NCc1ccc(F)cc1)N1C(=O)N2CCc3c([nH]c4ccccc34)[C@@]2(C)C1=O,24.1 µM
10,O=C(Cn1c(=O)n(CC(=O)NC2CCCC2)c(=O)c2ccccc21)Nc1cc(Cl)ccc1Cl,12.1 µM
11,COc1cccc(NC(=O)C2CCC(CNS(=O)(=O)c3ccc4c(c3)C(C)(C)C(=O)N4C)CC2)c1 (centres undefined),> 50 µM (inactive)
12,COc1ccccc1NS(=O)(=O)c1ccc2oc(SCC(=O)c3ccccc3)nc2c1,> 50 µM (inactive)
13,COC(=O)COc1ccc(/C=N/NC(=O)c2ccc(CN3CCc4ccccc4C3)cc2)cc1,43.8 µM
14,O=C(CSc1ncnc2c1oc1ccccc12)Nc1ccc2c(c1)OCCO2,34.5 µM
15,COc1ccc(OC)c(NC(=O)CS(=O)(=O)c2cn(CC(=O)N3CCC(C)CC3)c3ccccc23)c1,33.8 µM
16,Cc1ccc(C(=O)Nc2ccc(S(=O)(=O)N3CCCC3)cc2)cc1Br,> 50 µM (inactive)
17,CCCCNc1nc2c(-c3ccccc3)nnn2c2ccccc12,> 50 µM (inactive)
18,O=C(Cc1cccnc1)Nc1ccc(N2CCN(C3CCCCC3)C2=O)nc1,> 50 µM (inactive)
19,N#Cc1c(-c2cccs2)cc(-c2cccs2)[nH]c1=O,> 50 µM (inactive)
20,O=C(CSc1nnnn1-c1ccccc1)Nc1ccccc1,> 50 µM (inactive)
21,CCOc1ccc(Nc2cc(C(=O)NCCc3ccccc3)c3ccccc3n2)cc1,35.4 µM
22,COc1ccc(O)c(C(=O)OCc2cc(=O)oc3ccc4ccccc4c23)c1,> 50 µM (inactive)
23,O=C(COc1nsnc1N1CCOCC1)Nc1ccc(F)c(F)c1,> 50 µM (inactive)
24,CCOc1ccc(CCNC(=O)c2ccc3c(c2)N(CC)C(=O)c2ccccc2S3)cc1OCC,> 50 µM (inactive)

row,Structure (SMILES),IC50
1,COC(=O)c1sc2ccccc2c1NC(=O)c1ccc(Br)s1,21.2 µM
2,CCC(C)Oc1cccc(C(=O)Nc2ccc(CN3CCOCC3)cc2)c1 (centres undefined),> 50 µM (inactive)
3,COc1ccc(-c2cc(C(F)F)n3ncc(C(=O)Nc4ccc5c(c4)OCCO5)c3n2)cc1,> 50 µM (inactive)
4,O=C1N(Cc2cccc(Cl)c2)CCN1c1ccc2c(c1)CCC2,> 50 µM (inactive)
5,Cn1nc(-c2nc(-c3ccccc3)no2)c2c1CCN(C(=O)C1CC1)C2,> 50 µM (inactive)
6,COc1ccc(-c2nnc(SCc3ccccc3C#N)o2)c(OC)c1,> 50 µM (inactive)
7,Cc1cc2c(cc1C)NC(CC(=O)Nc1ccc(O)cc1)C(=O)N2 (centres undefined),30.8 µM
8,O=C(Nc1nnc2n1CCCS2)c1cc2ccccc2o1,> 50 µM (inactive)
9,COc1cc(Cl)c(C)cc1NC(=O)Cn1c(=O)n(CC(=O)NCc2ccco2)c(=O)c2ccccc21,> 50 µM (inactive)
10,CC(=O)c1ccc(NC(=O)C2CCN(c3cncnc3N3CCCC3)CC2)cc1,> 50 µM (inactive)
11,N#Cc1ccc(NC(=O)Nc2cccn(Cc3ccccc3Br)c2=O)cc1,> 50 µM (inactive)
12,N#Cc1ccc(NC(=O)c2ccc(S(=O)(=O)N3CCCCC3)cc2)cc1,> 50 µM (inactive)
13,O=S1(=O)NC(=NCCc2ccc(Cl)cc2Cl)c2ccccc21,> 50 µM (inactive)
14,C=C1CCC2[C@](C)(CCC[C@]2(C)C(=O)OC)[C@H]1CCc1ccoc1/C=C/C(=O)O (some centres undefined),> 50 µM (inactive)
15,COc1ccc(NC(=O)c2nnc(C(=O)NCCN3CCCCCC3)s2)cc1,38.8 µM
16,N#Cc1c(N)nc2c(c1N)C(c1ccccc1)CO2 (centres undefined),> 50 µM (inactive)
17,CCOc1ccc2[nH]c3c(=O)n(CCc4ccc(OC)cc4)cnc3c2c1,28.6 µM
18,CC(C)(C)n1ncc2c(=O)n(Cc3cccc([N+](=O)[O-])c3)cnc21,> 50 µM (inactive)
19,O=C(CCn1c(=O)c2sccc2n(CC(=O)OCc2ccccc2)c1=O)NCc1ccc2c(c1)OCO2,20.7 µM
20,O=C(NCCCN1CCc2ccccc2C1)c1cc2c(s1)CS(=O)(=O)C2,> 50 µM (inactive)
21,O=C1C=C(O)c2c(O)cccc2C1=O,25.5 µM
22,COc1ccc(-n2nnc(C(=O)Nc3ccc(F)cc3)c2C)cc1,> 50 µM (inactive)
23,O=C(O)CCCCCN1C(=O)CC(c2ccc(Cl)cc2)CC1=O,46.9 µM
24,CCC1=C(c2ccc(C)cc2)S(=O)(=O)NC1=NCC(=O)NC(C)c1ccccc1 (centres undefined),20.5 µM

row,Structure (SMILES),IC50
1,CC(=O)Nc1ccc([C@H]2OCC(=O)N(C3CCOCC3)[C@@H]2CO)cc1,> 50 µM (inactive)
2,Cc1ccc(-n2cc3c(N4CCCC(C(=O)NCC5CCCCC5)C4)ncnc3n2)cc1 (centres undefined),> 50 µM (inactive)
3,CC1Oc2cc3c(-c4c(O)cc(O)c5c(O)c6c(cc45)OC(C)C(C)C6=O)c(O)cc(O)c3c(O)c2C(=O)C1C (centres undefined),2.47 µM
4,CCCC(=O)Nc1ccc(SCc2nnc(-c3ccccc3)o2)cc1,> 50 µM (inactive)
5,CCn1c(CNc2ccc(Cl)cc2)nnc1SCC(=O)Nc1ccccc1,> 50 µM (inactive)
6,CCC1(C)Cc2c(sc3nc(SCC(=O)Nc4ccc(C(C)=O)cc4)nc(N)c23)CO1 (centres undefined),32.4 µM
7,CS(=O)(=O)N1CCCN(c2nc3cc(Cl)ccc3n3cccc23)CC1,> 50 µM (inactive)
8,Cc1ccc(NC(=O)Cn2cc(S(=O)(=O)N3CCCC3)ccc2=O)cc1,27.6 µM
9,Cc1c(-c2nc(-c3ccccc3Cl)no2)nnn1-c1cccc(F)c1,> 50 µM (inactive)
10,O=C1NC(=O)/C(=C/c2ccc(OC(=O)c3ccc(Cl)cc3Cl)cc2)N1,11 µM
11,Cc1noc(-c2cc(=O)n(CC(=O)NCc3ccccc3F)c3ccccc23)n1,25 µM
12,CCCCCn1c(Sc2ccc(C)cc2)nc2c1c(=O)[nH]c(=O)n2C,35.1 µM
13,Cc1ccc(Cn2nnc(C(=O)NCc3ccco3)c2-n2cccc2)cc1,> 50 µM (inactive)
14,NS(=O)(=O)c1cccc(NC(=O)CN2CCCc3ccccc32)c1,> 50 µM (inactive)
15,CC1CCCN(CCCNC(=O)c2ccc(N3CCc4ccccc43)s2)C1 (centres undefined),> 50 µM (inactive)
16,O=C(NC(Cc1ccccc1)c1nc2ccccc2[nH]1)C1CC1 (centres undefined),> 50 µM (inactive)
17,Cc1ccc(CNC(=O)Cn2c(=O)n(-c3ccccc3)c3ncccc32)cc1,> 50 µM (inactive)
18,O=C(Nc1ccc(F)cc1)Nc1ccccc1OCc1cc(=O)n2ccccc2n1,39.3 µM
19,COc1ccc2ncc3c(-c4ccc(C)cc4)nn(-c4ccc(F)cc4)c3c2c1,> 50 µM (inactive)
20,Cc1cc(=O)n(C)c2c(O)c3c(cc12)c(C)cc(=O)n3C,> 50 µM (inactive)
21,CC1(C)C[C@@H](O)[C@]2(C)CC[C@]3(C)C(=CCC4[C@@]5(C)CC[C@H](O)[C@](C)(CO)[C@@H]5CC[C@]43C)[C@@H]2C1 (some centres undefined),> 50 µM (inactive)
22,COc1ccc(CC(=O)Nc2cccc(-c3nc4ncccc4o3)c2)cc1OC,> 50 µM (inactive)
